Measured values: patent US20050222146A1, “N-substituted-n-sulfonylaminocyclopropane compounds and pharmaceutical use thereof” (priority 2003, published 2005)

How the values were obtained:
MMP-1 = molecular target: T1, MMP-1 (Homo sapiens, UniProt P03956); experiment: MMP-1 inhibitory action, Type I collagen Activity Measurement kit (FITC-labeled collagen type I); type: biochemical; details: 37° C. for 3 hr, read-out: Experimental Example 2 IC50 MMP1
T1 sequence (P03956 100-469): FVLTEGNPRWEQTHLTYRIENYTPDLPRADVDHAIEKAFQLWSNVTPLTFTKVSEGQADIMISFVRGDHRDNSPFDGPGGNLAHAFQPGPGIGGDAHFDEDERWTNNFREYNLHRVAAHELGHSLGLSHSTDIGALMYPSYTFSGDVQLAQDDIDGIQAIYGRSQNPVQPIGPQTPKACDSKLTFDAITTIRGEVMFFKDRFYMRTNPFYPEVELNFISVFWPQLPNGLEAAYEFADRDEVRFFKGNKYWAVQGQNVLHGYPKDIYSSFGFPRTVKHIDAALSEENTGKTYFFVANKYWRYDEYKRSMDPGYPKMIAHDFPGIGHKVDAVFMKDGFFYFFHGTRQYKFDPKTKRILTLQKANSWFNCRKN
Protocol: For MMP-1 Assay, Type I collagen Activity Measurement kit (YAGAI YU-72013) modified to a 96-well plate format was used.
The principle of the kit is based on the property of collagen that becomes soluble in ethanol after being cleaved by MMP-1.
(§1) The enzyme and substrate were diluted with Tris-HCl buffer, and test compounds were diluted with dimethyl sulfoxide (DMSO).
The enzyme and test compounds were added into 96-well plate, and fluorescein isothiocianate (FITC)-labeled collagen type I was added as a substrate and the mixture was incubated at 37° C. for 3 hr.
The reaction was terminated by addition of Tris-HCl buffer containing ethanol. After centrifugation, the supernatant containing denatured substrate was transferred to another 96-well plate. The collagenase activity of MMP-1 was determined by measuring FITC fluorescence intensity (excitation wavelength 485 nm, emission wavelength 530 nm) of each well. The inhibitory activity of the compound in each well (%) was calculated based on the values of enzyme-free well and inhibitor-free well. The inhibitory activity of the compound was represented as IC50 (μM).

aggrecanase-1 = molecular target: T2, aggrecanase-1 (Homo sapiens, UniProt O75173); experiment: Aggrecanase-1 inhibitory action, Particle Assay (GAG release from aggrecan-containing polyacrylamide particles); type: biochemical; details: 37° C. for 15 hr, read-out: Experimental Example 1 IC50 AG1
T2 sequence (O75173 213-837): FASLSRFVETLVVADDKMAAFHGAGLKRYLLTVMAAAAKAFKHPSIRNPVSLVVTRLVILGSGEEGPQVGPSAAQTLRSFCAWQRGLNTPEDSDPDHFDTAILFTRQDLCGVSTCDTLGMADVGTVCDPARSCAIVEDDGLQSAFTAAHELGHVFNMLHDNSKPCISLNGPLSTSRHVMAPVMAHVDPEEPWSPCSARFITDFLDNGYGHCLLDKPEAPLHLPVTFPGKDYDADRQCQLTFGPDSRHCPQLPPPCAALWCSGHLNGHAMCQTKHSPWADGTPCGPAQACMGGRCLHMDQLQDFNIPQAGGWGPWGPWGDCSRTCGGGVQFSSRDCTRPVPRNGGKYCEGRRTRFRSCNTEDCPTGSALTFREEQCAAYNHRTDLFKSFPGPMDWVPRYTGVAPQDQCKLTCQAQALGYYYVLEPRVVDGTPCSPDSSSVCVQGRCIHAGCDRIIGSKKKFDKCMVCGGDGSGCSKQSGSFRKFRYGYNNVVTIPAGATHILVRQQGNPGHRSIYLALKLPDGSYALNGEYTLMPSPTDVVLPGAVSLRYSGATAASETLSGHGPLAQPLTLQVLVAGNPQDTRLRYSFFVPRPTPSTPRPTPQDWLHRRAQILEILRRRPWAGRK
Protocol: Aggrecanase-1 Inhibitory Action
Particle Assay was used for determination of aggrecanase activity.
as §1
Test compounds and the enzyme were added into 96-well plate, and polyacrylamide particles containing aggrecan were added as a substrate and the mixture was incubated at 37° C. for 15 hr.
After incubation; the supernatant was transferred to another plate, and mixed with 1,9-dimethylmethylene blue. The absorbance at 595 nm was measured to quantify the amount of glycosaminoglycan (GAG) released in the reaction supernatant. Whale chondroitin sulfate was used as the standard of GAG. The inhibitory activity of the compound in each well (%) was calculated based on the values of enzyme-free well and inhibitor-free well. The inhibitory activity of the compound was represented as IC50 (μM).

Structure (SMILES): CC(C)(C)OC(=O)NCCN([C@]1(C(=O)O)C[C@H]1c1ccccc1)S(=O)(=O)c1ccc(-c2ccc(Cl)cc2)cc1 (relative stereo) [Example 1-4, (1R*,2S*)-1-[(2-tert-butoxycarbonylamino-ethyl)-(4′-chloro-biphenyl-4-sulfonyl)-amino]-2-phenyl-cyclopropanecarboxylic acid]
- IC50 (MMP-1): ≥ 10 µM
- IC50 (aggrecanase-1): < 1 µM

Structure (SMILES): O=C(O)[C@@]1(N(Cc2cc(=O)[nH][nH]2)S(=O)(=O)c2ccc(-c3ccc(Cl)cc3)cc2)C[C@H]1c1ccccc1 (relative stereo) [Example 1-5, (1R*,2S*)-1-[(4′-chloro-biphenyl-4-sulfonyl)-(5-oxo-2,5-dihydro-1H-pyrazol-3-ylmethyl)-amino]-2-phenyl-cyclopropanecarboxylic acid]
- IC50 (MMP-1): ≥ 10 µM
- IC50 (aggrecanase-1): < 1 µM

Structure (SMILES): CS(=O)(=O)NCCN([C@]1(C(=O)O)C[C@H]1c1ccccc1)S(=O)(=O)c1ccc(-c2ccc(Cl)cc2)cc1 (relative stereo) [Example 1-7, (1R*,2S*)-1-[(4′-chloro-biphenyl-4-sulfonyl)-(2-methanesulfonylamino-ethyl)-amino]-2-phenyl-cyclopropanecarboxylic acid]
- IC50 (MMP-1): ≥ 10 µM
- IC50 (aggrecanase-1): < 1 µM

Structure (SMILES): CC(C)OC(=O)NS(=O)(=O)NCCN([C@]1(C(=O)O)C[C@H]1c1ccccc1)S(=O)(=O)c1ccc(-c2ccc(Cl)cc2)cc1 (relative stereo) [Example 1-9, (1R*, 2S*)-1-[(4′-chloro-biphenyl-4-sulfonyl)-(2-isopropoxycarbonylaminosulfonylamino-ethyl)-amino]-2-phenyl-cyclopropanecarboxylic acid]
- IC50 (MMP-1): ≥ 10 µM
- IC50 (aggrecanase-1): < 1 µM

Structure (SMILES): O=C(O)c1ccc(CN([C@]2(C(=O)O)C[C@H]2c2ccccc2)S(=O)(=O)c2ccc(-c3ccc(Cl)cc3)cc2)cc1 (relative stereo) [Example 1-10, (1R*,2S*)-4-{[(1-carboxy-2-phenyl-cyclopropyl)-(4′-chloro-biphenyl-4-sulfonyl)-amino]-methyl}-benzoic acid]
- IC50 (MMP-1): ≥ 10 µM
- IC50 (aggrecanase-1): < 0.1 µM

Structure (SMILES): O=C(O)CN([C@]1(C(=O)O)C[C@H]1c1ccc(Cl)cc1)S(=O)(=O)c1ccc(-c2ccc(Cl)cc2)cc1 (relative stereo) [Example 1-11, (1R*,2S*)-1-[carboxymethyl-(4′-chloro-biphenyl-4-sulfonyl)-amino]-2-(4-chloro-phenyl)-cyclopropanecarboxylic acid]
- IC50 (MMP-1): ≥ 10 µM
- IC50 (aggrecanase-1): < 1 µM

Structure (SMILES): O=C(O)CN([C@]1(C(=O)O)C[C@H]1c1cccc(Cl)c1)S(=O)(=O)c1ccc(-c2ccc(Cl)cc2)cc1 (relative stereo) [Example 1-12, (1R*,2S*)-1-[carboxymethyl-(4′-chloro-biphenyl-4-sulfonyl)-amino]-2-(3-chloro-phenyl)-cyclopropanecarboxylic acid]
- IC50 (MMP-1): ≥ 10 µM
- IC50 (aggrecanase-1): < 1 µM

Structure (SMILES): O=C(O)CN([C@]1(C(=O)O)C[C@H]1c1ccccc1Cl)S(=O)(=O)c1ccc(-c2ccc(Cl)cc2)cc1 (relative stereo) [Example 1-13, (1R*,2S*)-1-[carboxymethyl-(4′-chloro-biphenyl-4-sulfonyl)-amino]-2-(2-chloro-phenyl)-cyclopropanecarboxylic acid]
- IC50 (MMP-1): ≥ 10 µM
- IC50 (aggrecanase-1): < 1 µM

Structure (SMILES): O=C(O)[C@@]1(N(Cc2nn[nH]n2)S(=O)(=O)c2ccc(-c3ccc(Cl)cc3)cc2)C[C@H]1c1ccccc1 (relative stereo) [Example 1-15, (1R*,2S*)-1-[(4′-chloro-biphenyl-4-sulfonyl)-(2H-tetrazol-5-ylmethyl)-amino]-2-phenyl-cyclopropanecarboxylic acid]
- IC50 (MMP-1): ≥ 10 µM
- IC50 (aggrecanase-1): < 1 µM

Structure (SMILES): O=C(O)[C@@]1(N(Cc2cccc(O)c2)S(=O)(=O)c2ccc(-c3ccc(Cl)cc3)cc2)C[C@H]1c1ccccc1 (relative stereo) [Example 1-17, (1R*,2S*)-1-[(4′-chloro-biphenyl-4-sulfonyl)-(3-hydroxy-benzyl)-amino]-2-phenyl-cyclopropanecarboxylic acid]
- IC50 (MMP-1): ≥ 10 µM
- IC50 (aggrecanase-1): < 1 µM
